Data taken from ChEMBL document CHEMBL1154681, “Structural aspects of flavonoids as inhibitors of human butyrylcholinesterase” (Eur J Med Chem, 2010).
The source made the active and inactive calls. The calls are words filed in the database; no cut-off is given here.

Assays:
THP-1 = assay: Cytotoxicity against human THP1 cells after 24 hrs by MTS assay; format: cell-based
A549 = assay: Cytotoxicity against human A549 cells upto 200 umol/L after 24 hrs by MTS assay; format: cell-based; conditions: a549, 24 h
[1] = Stability in phosphate buffer at pH 7.4 after 90 mins by spectrophotometry; format: physicochemical; conditions: pH 7.4, 1.5 h
Cholinesterase [2] = biological target: T1, Cholinesterase (Homo sapiens, UniProt P06276); assay: Inhibition of human plasma BChE by Ellman's method
Acetylcholinesterase = Acetylcholinesterase (Homo sapiens, UniProt P22303); assay: Inhibition of human recombinant AChE by Ellman's method
HepG2 = assay: Cytotoxicity against human HepG2 cells upto 200 umol/L after 24 hrs by MTS assay; format: cell-based; conditions: hepg2, 24 h
Cholinesterase [3] = biological target: T1, Cholinesterase; assay: Inhibition of human plasma BChE upto 45 mins at 100 umol/L by Ellman's method; format: cell-free

T1 sequence (P06276 whole entry): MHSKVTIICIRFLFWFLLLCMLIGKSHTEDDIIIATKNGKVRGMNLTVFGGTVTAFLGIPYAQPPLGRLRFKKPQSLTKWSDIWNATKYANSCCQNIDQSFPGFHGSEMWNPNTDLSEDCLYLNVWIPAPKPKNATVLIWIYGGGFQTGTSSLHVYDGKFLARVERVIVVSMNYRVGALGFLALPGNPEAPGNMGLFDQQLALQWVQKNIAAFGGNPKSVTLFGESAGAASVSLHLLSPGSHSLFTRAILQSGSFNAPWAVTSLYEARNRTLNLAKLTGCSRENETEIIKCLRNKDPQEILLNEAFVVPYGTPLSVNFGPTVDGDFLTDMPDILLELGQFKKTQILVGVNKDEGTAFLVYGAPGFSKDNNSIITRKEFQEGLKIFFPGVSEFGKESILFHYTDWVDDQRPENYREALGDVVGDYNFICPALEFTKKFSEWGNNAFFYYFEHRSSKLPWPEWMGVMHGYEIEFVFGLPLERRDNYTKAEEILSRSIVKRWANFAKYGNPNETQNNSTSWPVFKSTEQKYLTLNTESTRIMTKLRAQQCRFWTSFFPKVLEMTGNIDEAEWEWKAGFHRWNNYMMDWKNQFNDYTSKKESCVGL
Chain of Acetylcholinesterase (P22303 whole entry): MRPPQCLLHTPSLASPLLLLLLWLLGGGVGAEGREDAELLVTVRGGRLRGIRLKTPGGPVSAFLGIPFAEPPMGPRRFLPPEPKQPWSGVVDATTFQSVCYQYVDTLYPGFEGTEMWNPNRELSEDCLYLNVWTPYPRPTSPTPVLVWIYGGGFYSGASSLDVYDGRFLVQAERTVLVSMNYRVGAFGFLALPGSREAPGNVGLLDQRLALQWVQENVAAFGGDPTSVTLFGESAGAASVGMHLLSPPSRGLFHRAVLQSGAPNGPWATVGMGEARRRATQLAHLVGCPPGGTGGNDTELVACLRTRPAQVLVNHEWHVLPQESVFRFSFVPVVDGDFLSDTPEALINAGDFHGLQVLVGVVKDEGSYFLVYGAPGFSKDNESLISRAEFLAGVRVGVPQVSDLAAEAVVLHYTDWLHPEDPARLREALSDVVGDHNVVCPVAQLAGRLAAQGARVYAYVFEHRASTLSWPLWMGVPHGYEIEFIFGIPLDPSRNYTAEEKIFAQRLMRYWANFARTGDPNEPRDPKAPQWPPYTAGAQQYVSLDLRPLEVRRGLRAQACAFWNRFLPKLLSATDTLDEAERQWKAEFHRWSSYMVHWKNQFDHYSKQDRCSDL

SMILES | IC50 (THP-1) [microM/L] | Activity (A549) | Stability [1] | Ki (Cholinesterase [2]) [microM/L] | Ki (Acetylcholinesterase) [microM/L] | Activity (HepG2) | inhibition (Cholinesterase [3])
O=c1cc(-c2ccc(O)cc2)oc2cc(O)cc(O)c12 [APIGENIN] | 60 | Non-toxic | Unstable | 37.4 | 121.6 | Non-toxic | 
O=c1c(O)c(-c2ccc(O)c(O)c2)oc2cc(O)ccc12 [FISETIN] | 30 | Non-toxic | Unstable | 90 | 100.2 | Non-toxic | 
O=c1c(O)c(-c2ccccc2)oc2cc(O)cc(O)c12 [GALANGIN] |  | Non-toxic | Unstable | 6.9 | 85.6 | Non-toxic | 
O=c1c(O)c(-c2ccc(O)cc2)oc2cc(O)cc(O)c12 [KAEMPFEROL] |  | Non-toxic | Unstable | 43.1 | 92.8 | Non-toxic | inactive
O=c1cc(-c2ccc(O)c(O)c2)oc2cc(O)cc(O)c12 [LUTEOLIN] | 70 | Non-toxic | Unstable | 166.1 | 65.8 | Non-toxic | 
O=c1c(O)c(-c2cc(O)c(O)c(O)c2)oc2cc(O)cc(O)c12 [MYRICETIN] |  | Non-toxic |  | 71 | 37.8 | Non-toxic | inactive
O=c1c(O)c(-c2ccc(O)c(O)c2)oc2cc(O)cc(O)c12 [QUERCETIN] |  | Non-toxic | Unstable | 68 | 38.3 | Non-toxic | 
C[C@@H]1O[C@@H](OC[C@H]2O[C@@H](Oc3c(-c4ccc(O)c(O)c4)oc4cc(O)cc(O)c4c3=O)[C@H](O)[C@@H](O)[C@@H]2O)[C@H](O)[C@H](O)[C@H]1O [RUTIN] |  | Non-toxic | Stable | 501.2 | > 300 | Non-toxic | 
